Reference: patent US9333257B2, “FGFR1 antibodies and treatment of cancer” (Agency for Science, Technology and Research, priority 2011, dated 2016)

Legend:
Assay type in all cases: cell-based, human
MG63 cells [1] = experiment: Cell growth, viable cell count by GUAVA Viacount; settings: 48 hours; for repression of cell growth: 50 μM
Method: The cells were seeded in triplicates at 20,000 cells/cm^2 in 24-well plates, except MDA-MB468 which was plated at 100,000 cells/cm^2. […] 48 hours after treatment, the viable cell numbers were counted using the GUAVA Viacount Program and used to plot the graph (FIG. 6). The ‘starting’ cell numbers which were seeded for the assay were also included. hFOB is the normal cell control for osteosarcoma cells, while MCF10A is the normal cell control for breast cancer cells.
We tested the effectiveness of these reagents to block the growth of MG63 using GUAVA Viacount system.
The effect of these antibodies on the growth of MG63 cells were examined by GUAVA EasyCyte flow cytometry system.
Rabbit IgG and mouse IgG were the vehicle control for IMB-R1 and IMB-R1 mAbs, respectively. The viable cells were counted by GUAVA Viacount system. The statistics was done by Student's t test.

Saos-2 = experiment: Cell viability via GUAVA, fold change vs cells plated; settings: two day treatment
Method: (§1) Old media was first removed and 3 ml of fresh media added. IMBR1 and rabbit IgG were added to achieve desired dosage. PD166866 (Sigma-Aldrich, USA) and SU5402 (Merck, Germany) were dissolved in dimethyl sulfoxide (DMSO; Sigma-Aldrich, USA) and added to master mix of media to achieve desired concentration. Additional DMSO was added such that total volume of chemicals added was constant.
(§2) Cells were grown in 24-well plate with 500 μl of media at a seeding density of 20,000 cells/cm^2, except for MDA-MB-468 which were seeded at a density of 100,000 cells/cm^2. Each well of cells were then collected via trypsinization with 200 μl of trypsin-EDTA (Invitrogen, USA) and neutralized with 200 μl of media. 1 μl of GUAVA Viacount Flex dye (Guava Technologies, USA) was added to each well. Quantification of viable cells were performed as per manufacturer's instructions.
(§3) To determine the effect of inhibiting FGFR1 signaling on cell viability in osteosarcoma cells, Saos-2 and hOS were treated with varying concentrations of FGFR tyrosine kinase inhibitors PD166866 (Panek et al., 1998) and SU5402 (Mohammadi et al, 1997). The control groups of respective cell lines were treated with equivalent volume of DMSO, as DMSO is the vehicle for both chemical inhibitors. Cell viability was measured via GUAVA and fold change calculated to compare changes in number of cells after two day treatment and number of cells plated. A fold change greater than one indicated an increase in number of cells while a fold change less than one indicated a decrease in number of cells compared to number of cells plated.
To determine the effect of IMBR1 on cell viability, GUAVA was performed after two day treatment with varying amount of IMBR1 or rabbit IgG as control. Rabbit IgG was used as control as IMBR1 is raised in rabbit. Half maximal inhibitory constant (IC50) was then determined.

hOS = experiment: as above; settings: two day treatment
Method: as §1, §2, §3

MG63 cells [2] = experiment: FGF2 stimulated MG63 cell growth (GUAVA)
Method: MG63 cells were treated with 20 ng/ml FGF2, IMB-R1 (1:250 dilution), or pretreated with IMB-R11 hour before addition of FGF2. Cells without the above treatments were the control. After 2 days, the viable cell numbers were counted using GUAVA system as mentioned before.
Cells were first treated with increasing doses of U0126 for 48 hours. The viable cell numbers were then analysed by GUAVA system. Next, cells were treated with 20 ng/ml FGF2 in the presence or absence of the optimal dose of U0126 determined from the first assay, before the cell counting was performed.

MG63 cells [3] = experiment: Annexin V-FITC / PI staining apoptosis assay
Method: Thus we treated MG63 with 1:250 dilution of IMB-R1 or equal volume of rabbit IgG for 24 hours and then stained the cells with Annexin V-FITC and Propidium Iodide (PI) (BD Biosciences). Annexin V binds to phosphatidylserine which is only present on the outer layer of cell membrane at the early stage of apoptosis. Therefore positive staining of Annexin V indicates early apoptosis. PI is unable to penetrate the intact cell membrane. Only when the membrane breaks down at the late stage of apoptosis, PI can enter and stain the cell. After staining, the cell population was analyzed by BD FACS Array system. The viable cells were negative of either Annexin V-FITC or PI staining, which was shown in Q3; the early apoptotic cells were positive of Annexin V-FITC but negative of PI staining, which was shown in Q4; the late apoptotic or dead cells were positive of both staining, which was shown in Q2. The percentage of positive cells in each population was plotted in the graphs.
We next examined whether FGF2 regulated cell apoptosis and IMB-R1 blocked its effect. MG63 cells were treated with IMB-R1 (1:250) 1 hour before FGF2 (20 ng/ml). 24 hours later, cells were harvested and stained with Annexin-PI. Thereafter, cells were analysed by flow cytometry (FIG. 11B). […]
Cells were treated with 25 μM U0126 for 24 hours before the apoptosis of the cells was analysed by Annexin-PI staining.

Caspase 3 = Caspase 3 activity assay (Biovision kit) in MG63; settings: 24 hours
Method: We further examined the effect of IMB-R1 on Caspase 3 activity using an assay kit from Biovision. Caspase 3 is activated at the early stage of apoptosis, so it is used as a common marker of apoptosis. Staurosporine, known as the inducer of caspase 3 activity, was used in this assay as the positive control. We first treated MG63 cells with increasing dose of staurosporine for 24 hours to determine the working dose.
We next examined whether FGF2 regulated cell apoptosis and IMB-R1 blocked its effect. MG63 cells were treated with IMB-R1 (1:250) 1 hour before FGF2 (20 ng/ml). 24 hours later, cells were harvested and stained with Annexin-PI. Thereafter, cells were analysed by flow cytometry (FIG. 11B). The percentage of positive cells in each population was plotted in the graphs (FIG. 11C). We further examined the effect of IMB-R1 and FGF2 on Caspase 3 activity using the assay kit from Biovision. Caspase 3 is activated at the early stage of apoptosis, so it is used as a common marker of apoptosis. The dose of reagents and the time point chosen were same to those in Annexin-PI staining assay.

Row | Compound | repression of cell growth (MG63 cells [1]) [%] | fold change of cell number vs cells plated (Saos-2; 10 μM) | fold change of cell number vs cells plated (Saos-2; 100 μM) | fold change of cell number vs cells plated (hOS; 10 μM) | fold change of cell number vs cells plated (hOS; 100 μM) | also measured
1 | COc1cc(OC)cc(-c2cc3cnc(N)nc3nc2NC(=O)NC(C)(C)C)c1 [PD166866] | ~50 | 1.7 | 0.4 | 4.2 | 0.7 | 
2 | CCN(CC)CCCCNc1ncc2cc(-c3cc(OC)cc(OC)c3)c(NC(=O)NC(C)(C)C)nc2n1 [PD173074] |  |  |  |  |  | IC50 (MG63 cells [1]; Homo sapiens, MG-63, read-out: concentration able to induce 50% cell growth inhibition): 10 to 25 µM
3 | Cc1c[nH]c(/C=C2\C(=O)Nc3ccccc32)c1CCC(=O)O [SU5402] | ~50 | 2.14 | 0.9 | 5.2 | 0.6 | 
4 | N#CC(=C(/N)Sc1ccccc1N)/C(C#N)=C(\N)Sc1ccccc1N [U0126] |  |  |  |  |  | cell number relative to cells without treatment (MG63 cells [1]; 25 μM): ~50%; FGF2 stimulated cell growth (MG63 cells [2]; 25 μM U0126, 20 ng/ml FGF2): completely suppressed; cell apoptosis (MG63 cells [3]; 25 μM, 24 hours (control 7.49%)): ~100%; viability at 25 µM (MG63 cells [3]; Homo sapiens, MG-63, 24 h, read-out: viable cells): < 1%
5 | CN[C@@H]1C[C@H]2O[C@@](C)([C@@H]1OC)n1c3ccccc3c3c4c(c5c6ccccc6n2c5c31)C(=O)NC4 [staurosporine] |  |  |  |  |  | Caspase 3 activation (Caspase 3; 15 nM): sufficient to activate Caspase 3
6 | FGF2: recombinant human FGF2 (R&D Systems), FGF ligand that activates FGFR1 signalling |  |  |  |  |  | increase of cell proliferation (MG63 cells [2]; 20 ng/ml FGF2, 2 days): 1.9 folds; caspase 3 activity (Caspase 3; FGF2 20 ng/ml alone): slightly decreased
